From ChEMBL document CHEMBL3228005, “Inhibition of rat passive cutaneous anaphylaxis by 3-(tetrazol-5-yl)quinolines” (1979)

What was measured:
Assay type in all cases: functional
Rattus norvegicus [1] = experiment: Inhibition of passive cutaneous anaphylaxis in po dosed Sprague-Dawley rat; conditions: read-out: MED
Rattus norvegicus [2] = experiment: Inhibition of passive cutaneous anaphylaxis in ip dosed Sprague-Dawley rat; conditions: for minimal effective dose: read-out: MED
Rattus norvegicus [3] = experiment: Inhibition of passive cutaneous anaphylaxis in po dosed Sprague-Dawley rat administered with ball-milled suspension; conditions: read-out: MED
Rattus norvegicus [4] = experiment: Ratio of disodium cromoglycate MED to compound MED for inhibition of passive cutaneous anaphylaxis in ip dosed Sprague-Dawley rat
Rattus norvegicus [5] = experiment: Ratio of doxantrazole MED to compound MED for inhibition of passive cutaneous anaphylaxis in po dosed Sprague-Dawley rat
Rattus norvegicus [6] = experiment: Inhibition of passive cutaneous anaphylaxis in ip dosed Sprague-Dawley rat administered with ball-milled suspension; conditions: read-out: MED

## O=C(O)c1cnc2c(F)cccc2c1O
Rattus norvegicus [1]
  minimal effective dose: > 100 mg/kg

## COc1cccc2c(O)c(C(=O)O)cnc12
Rattus norvegicus [2]
  minimal effective dose: 10 mg/kg
Rattus norvegicus [1]
  minimal effective dose: > 100 mg/kg

## O=C(O)c1cnc2ccccc2c1
Rattus norvegicus [2]
  minimal effective dose: 50 mg/kg
Rattus norvegicus [1]
  minimal effective dose: 150 mg/kg

## Cc1cc(F)c2[nH]cc(-c3nn[nH]n3)c(=O)c2c1.O
Rattus norvegicus [2]
  minimal effective dose: 2.5 mg/kg
Rattus norvegicus [1]
  minimal effective dose: > 10 mg/kg

## Cl.O=C(O)c1cnc2ccc(F)cc2c1
Rattus norvegicus [1]
  minimal effective dose: > 50 mg/kg

## O=C(O)c1cnc2ccc(C(F)(F)F)cc2c1
Rattus norvegicus [2]
  minimal effective dose: > 25 mg/kg
Rattus norvegicus [1]
  minimal effective dose: > 50 mg/kg

## COc1ccc2ncc(C(=O)O)cc2c1
Rattus norvegicus [2]
  minimal effective dose: > 5 mg/kg

## O=C(O)c1cnc2ccc(OC3CCCCC3)cc2c1
Rattus norvegicus [2]
  minimal effective dose: > 25 mg/kg

## O=C(O)c1cnc2ccc(C3CCCCC3)cc2c1
Rattus norvegicus [2]
  minimal effective dose: > 25 mg/kg

## O=C(O)c1cnc2cc(C(F)(F)F)ccc2c1
Rattus norvegicus [2]
  minimal effective dose: > 25 mg/kg
Rattus norvegicus [1]
  minimal effective dose: > 25 mg/kg

## COc1ccc2cc(C(=O)O)cnc2c1.Cl
Rattus norvegicus [2]
  minimal effective dose: > 25 mg/kg

## O.O=C(O)c1cnc2c(F)cccc2c1
Rattus norvegicus [2]
  minimal effective dose: > 25 mg/kg
Rattus norvegicus [1]
  minimal effective dose: 150 mg/kg

## O=C(O)c1cnc2c(Cl)cccc2c1
Rattus norvegicus [2]
  minimal effective dose: 25 mg/kg
Rattus norvegicus [1]
  minimal effective dose: 150 mg/kg

## O=C(O)c1cnc2c(C(F)(F)F)cccc2c1
Rattus norvegicus [2]
  minimal effective dose: 50 mg/kg
Rattus norvegicus [1]
  minimal effective dose: 75 mg/kg

## Cc1cccc2cc(C(=O)O)cnc12
Rattus norvegicus [2]
  minimal effective dose: > 50 mg/kg
Rattus norvegicus [1]
  minimal effective dose: > 25 mg/kg

## CCc1cccc2cc(C(=O)O)cnc12
Rattus norvegicus [2]
  minimal effective dose: > 50 mg/kg
Rattus norvegicus [1]
  minimal effective dose: 75 mg/kg

## COc1cccc2cc(C(=O)O)cnc12
Rattus norvegicus [2]
  minimal effective dose: 25 mg/kg
Rattus norvegicus [1]
  minimal effective dose: 150 mg/kg

## CCOc1cccc2cc(C(=O)O)cnc12
Rattus norvegicus [2]
  minimal effective dose: > 25 mg/kg
Rattus norvegicus [1]
  minimal effective dose: > 50 mg/kg

## COc1ccc(OC)c2ncc(C(=O)O)cc12
Rattus norvegicus [2]
  minimal effective dose: > 25 mg/kg
Rattus norvegicus [1]
  minimal effective dose: > 50 mg/kg

## O=C(O)c1cnc2c(F)cc(F)cc2c1
Rattus norvegicus [2]
  minimal effective dose: 25 mg/kg

## Cc1ccc2cc(C(=O)O)cnc2c1C
Rattus norvegicus [2]
  minimal effective dose: 25 mg/kg
Rattus norvegicus [1]
  minimal effective dose: 50 mg/kg

## O=C(O)c1cnc2c3c(ccc2c1)CCCC3
Rattus norvegicus [2]
  minimal effective dose: 25 mg/kg
Rattus norvegicus [1]
  minimal effective dose: 50 mg/kg

## O=C(O)c1cnc2c(ccc3ccccc32)c1
Rattus norvegicus [2]
  minimal effective dose: 25 mg/kg
Rattus norvegicus [1]
  minimal effective dose: 50 mg/kg

## c1ccc2ncc(-c3nn[nH]n3)cc2c1
Rattus norvegicus [2]
  minimal effective dose: 10 mg/kg
Rattus norvegicus [1]
  minimal effective dose: 25 mg/kg

## Fc1ccc2ncc(-c3nn[nH]n3)cc2c1
Rattus norvegicus [2]
  minimal effective dose: < 25 mg/kg
Rattus norvegicus [1]
  minimal effective dose: 50 mg/kg

## COc1ccc2ncc(-c3nn[nH]n3)cc2c1.O
Rattus norvegicus [2]
  minimal effective dose: 10 mg/kg
Rattus norvegicus [1]
  minimal effective dose: > 25 mg/kg

## Cl.c1cc2ncc(-c3nn[nH]n3)cc2cc1OC1CCCCC1
Rattus norvegicus [2]
  minimal effective dose: 5 mg/kg
Rattus norvegicus [1]
  minimal effective dose: 10 mg/kg

## CCCCc1ccc2ncc(-c3nn[nH]n3)cc2c1
Rattus norvegicus [2]
  minimal effective dose: 5 mg/kg
Rattus norvegicus [1]
  minimal effective dose: > 25 mg/kg

## Cl.c1nc2ccc(C3CCCCC3)cc2cc1-c1nn[nH]n1
Rattus norvegicus [2]
  minimal effective dose: 5 mg/kg
Rattus norvegicus [1]
  minimal effective dose: > 25 mg/kg

## FC(F)(F)c1ccc2cc(-c3nn[nH]n3)cnc2c1
Rattus norvegicus [2]
  minimal effective dose: < 10 mg/kg
Rattus norvegicus [1]
  minimal effective dose: 25 mg/kg

## COc1ccc2cc(-c3nn[nH]n3)cnc2c1.Cl
Rattus norvegicus [2]
  minimal effective dose: 5 mg/kg
Rattus norvegicus [1]
  minimal effective dose: > 25 mg/kg

## Fc1cccc2cc(-c3nn[nH]n3)cnc12
Rattus norvegicus [2]
  minimal effective dose: > 10 mg/kg

## FC(F)(F)c1cccc2cc(-c3nn[nH]n3)cnc12
Rattus norvegicus [2]
  minimal effective dose: < 25 mg/kg
Rattus norvegicus [1]
  minimal effective dose: 25 mg/kg

## Cc1cccc2cc(-c3nn[nH]n3)cnc12
Rattus norvegicus [2]
  minimal effective dose: < 25 mg/kg
Rattus norvegicus [1]
  minimal effective dose: 25 mg/kg

## CCc1cccc2cc(-c3nn[nH]n3)cnc12
Rattus norvegicus [2]
  minimal effective dose: 2.5 mg/kg
Rattus norvegicus [1]
  minimal effective dose: 5 mg/kg

## COc1cccc2cc(-c3nn[nH]n3)cnc12
Rattus norvegicus [2]
  minimal effective dose: 2.5 mg/kg
Rattus norvegicus [1]
  minimal effective dose: > 25 mg/kg

## COc1ccc(OC)c2ncc(-c3nn[nH]n3)cc12
Rattus norvegicus [2]
  minimal effective dose: 5 mg/kg
Rattus norvegicus [1]
  minimal effective dose: > 50 mg/kg

## Fc1cc(F)c2ncc(-c3nn[nH]n3)cc2c1
Rattus norvegicus [2]
  minimal effective dose: 10 mg/kg
Rattus norvegicus [1]
  minimal effective dose: > 50 mg/kg

## Cc1ccc2cc(-c3nn[nH]n3)cnc2c1C
Rattus norvegicus [2]
  minimal effective dose: 1 mg/kg
Rattus norvegicus [1]
  minimal effective dose: 25 mg/kg

## c1nc2c3c(ccc2cc1-c1nn[nH]n1)CCCC3
Rattus norvegicus [2]
  minimal effective dose: 5 mg/kg
Rattus norvegicus [1]
  minimal effective dose: 5 mg/kg

## c1ccc2c(c1)ccc1cc(-c3nn[nH]n3)cnc12
Rattus norvegicus [2]
  minimal effective dose: 5 mg/kg
Rattus norvegicus [1]
  minimal effective dose: 10 mg/kg

## Cc1cc([N+](=O)[O-])c2cc(-c3nn[nH]n3)cnc2c1C
Rattus norvegicus [2]
  minimal effective dose: 2.5 mg/kg
Rattus norvegicus [1]
  minimal effective dose: 25 mg/kg

## O.O=c1c(-c2nn[nH]n2)c[nH]c2ccccc12
Rattus norvegicus [2]
  minimal effective dose: 1.25 mg/kg
Rattus norvegicus [1]
  minimal effective dose: > 20 mg/kg

## O.O=c1c(-c2nn[nH]n2)c[nH]c2ccc(F)cc12
Rattus norvegicus [2]
  minimal effective dose: 1.25 mg/kg
Rattus norvegicus [1]
  minimal effective dose: > 20 mg/kg

## O=c1c(-c2nn[nH]n2)c[nH]c2ccc(Cl)cc12
Rattus norvegicus [2]
  minimal effective dose: > 10 mg/kg
Rattus norvegicus [1]
  minimal effective dose: > 25 mg/kg

## Cc1ccc2[nH]cc(-c3nn[nH]n3)c(=O)c2c1.O
Rattus norvegicus [2]
  minimal effective dose: 1.25 mg/kg
Rattus norvegicus [1]
  minimal effective dose: > 25 mg/kg

## CCc1ccc2[nH]cc(-c3nn[nH]n3)c(=O)c2c1.O
Rattus norvegicus [2]
  minimal effective dose: < 5 mg/kg
Rattus norvegicus [1]
  minimal effective dose: 0.625 mg/kg
Rattus norvegicus [3]
  minimal effective dose: 0.156 mg/kg

## CCc1ccc2c(=O)c(-c3nn[nH]n3)c[nH]c2c1.O
Rattus norvegicus [2]
  minimal effective dose: < 5 mg/kg
Rattus norvegicus [1]
  minimal effective dose: > 10 mg/kg

## COc1ccc2c(=O)c(-c3nn[nH]n3)c[nH]c2c1
Rattus norvegicus [2]
  minimal effective dose: 10 mg/kg

## O=c1c(-c2nn[nH]n2)c[nH]c2c(F)cccc12
Rattus norvegicus [2]
  minimal effective dose: 0.625 mg/kg
Rattus norvegicus [1]
  minimal effective dose: 10 mg/kg
Rattus norvegicus [3]
  minimal effective dose: 2.5 mg/kg

## O=c1c(-c2nn[nH]n2)c[nH]c2c(Cl)cccc12
Rattus norvegicus [4]
  Ratio: 33
Rattus norvegicus [5]
  Ratio: 32
Rattus norvegicus [2]
  minimal effective dose: 0.078 mg/kg
Rattus norvegicus [6]
  minimal effective dose: 0.156 mg/kg

## O=c1c(-c2nn[nH]n2)c[nH]c2c(Br)cccc12
Rattus norvegicus [2]
  minimal effective dose: > 5 mg/kg
Rattus norvegicus [1]
  minimal effective dose: > 10 mg/kg

## O=c1c(-c2nn[nH]n2)c[nH]c2c(C(F)(F)F)cccc12
Rattus norvegicus [2]
  minimal effective dose: 0.156 mg/kg
Rattus norvegicus [1]
  minimal effective dose: > 25 mg/kg

## Cc1cccc2c(=O)c(-c3nn[nH]n3)c[nH]c12
Rattus norvegicus [2]
  minimal effective dose: > 5 mg/kg
Rattus norvegicus [1]
  minimal effective dose: > 10 mg/kg

## CCc1cccc2c(=O)c(-c3nn[nH]n3)c[nH]c12
Rattus norvegicus [2]
  minimal effective dose: 0.312 mg/kg
Rattus norvegicus [1]
  minimal effective dose: > 25 mg/kg

## CC(C)c1cccc2c(=O)c(-c3nn[nH]n3)c[nH]c12
Rattus norvegicus [2]
  minimal effective dose: 1.25 mg/kg
Rattus norvegicus [1]
  minimal effective dose: 10 mg/kg

## COc1cccc2c(=O)c(-c3nn[nH]n3)c[nH]c12.O
Rattus norvegicus [2]
  minimal effective dose: 0.15 mg/kg
Rattus norvegicus [1]
  minimal effective dose: 0.312 mg/kg

## CC(C)Oc1cccc2c(=O)c(-c3nn[nH]n3)c[nH]c12
Rattus norvegicus [2]
  minimal effective dose: 0.078 mg/kg
Rattus norvegicus [1]
  minimal effective dose: 1.25 mg/kg

## CSc1cccc2c(=O)c(-c3nn[nH]n3)c[nH]c12
Rattus norvegicus [2]
  minimal effective dose: 10 mg/kg
Rattus norvegicus [1]
  minimal effective dose: 25 mg/kg

## CS(=O)(=O)c1cccc2c(=O)c(-c3nn[nH]n3)c[nH]c12
Rattus norvegicus [2]
  minimal effective dose: 10 mg/kg
Rattus norvegicus [1]
  minimal effective dose: > 25 mg/kg

## O=c1c(-c2nn[nH]n2)c[nH]c2c(F)ccc(F)c12
Rattus norvegicus [2]
  minimal effective dose: > 0.156 mg/kg
Rattus norvegicus [1]
  minimal effective dose: 10 mg/kg

## O=c1c(-c2nn[nH]n2)c[nH]c2c(Cl)ccc(Cl)c12
Rattus norvegicus [2]
  minimal effective dose: > 0.156 mg/kg
Rattus norvegicus [1]
  minimal effective dose: 0.312 mg/kg

## O.O=c1c(-c2nn[nH]n2)c[nH]c2c(Cl)cc(Cl)cc12
Rattus norvegicus [2]
  minimal effective dose: > 0.156 mg/kg
Rattus norvegicus [1]
  minimal effective dose: > 10 mg/kg

## O=c1c(-c2nn[nH]n2)c[nH]c2c(Cl)c(Cl)ccc12
Rattus norvegicus [2]
  minimal effective dose: > 0.156 mg/kg
Rattus norvegicus [1]
  minimal effective dose: > 10 mg/kg

## COc1ccc(OC)c2c(=O)c(-c3nn[nH]n3)c[nH]c12
Rattus norvegicus [2]
  minimal effective dose: 1.25 mg/kg
Rattus norvegicus [1]
  minimal effective dose: > 10 mg/kg

## O.O=c1c(-c2nn[nH]n2)c[nH]c2c3c(ccc12)CCCC3
Rattus norvegicus [1]
  minimal effective dose: > 25 mg/kg

## COc1ccc2c(O)c(C(=O)O)cnc2c1
Rattus norvegicus [2]
  minimal effective dose: > 50 mg/kg
Rattus norvegicus [1]
  minimal effective dose: > 100 mg/kg

## COc1ccc2ncc(C(=O)O)c(O)c2c1
Rattus norvegicus [2]
  minimal effective dose: > 50 mg/kg
Rattus norvegicus [1]
  minimal effective dose: > 100 mg/kg

## O=C(O)c1cnc2c(Cl)cccc2c1O
Rattus norvegicus [1]
  minimal effective dose: > 100 mg/kg

## O=C([O-])c1cc(=O)c2c(OCC(O)COc3cccc4oc(C(=O)[O-])cc(=O)c34)cccc2o1.[Na+].[Na+] [CROMOLYN SODIUM]
Rattus norvegicus [2]
  ED50: 2.6 mg/kg

## O=C1c2ccccc2S(=O)(=O)c2cc(-c3nn[nH]n3)ccc21 [DOXANTRAZOLE]
Rattus norvegicus [1]
  minimal effective dose: 5 mg/kg
